Laboratory results taken from patent publication US20040024024A1, “Aromatic sulfone hydroxamates and their use as protease inhibitors” (priority 2001, published 2004).

Tests used:
Human recombinant MMP-13 = target: T1, Human recombinant MMP-13 (Homo sapiens, UniProt P45452); assay: In vitro MMP inhibition, IC50 determination (fluorogenic substrate I); format: biochemical
T1 construct: made in house; host or cells: baculovirus / insect cells
Procedure: (§1) Several hydroxamates and salts thereof were analyzed in in vitro assays to determine their ability to inhibit the MMP cleavage of peptide substrates. Inhibition (Ki) and IC50 constants were calculated from the assayed hydroxamate-MMP interactions.
(§2) Human recombinant MMP-1, MMP-2, MMP-9, MMP-13, and MMP-14 were used in this assay. All enzymes were prepared in Assignee's laboratories following usual laboratory procedures. Protocols for the preparation and use of these enzymes are available in the scientific literature. See, e.g., Enzyme Nomenclature (Academic Press, San Diego, Calif., 1992) (and the citations therein). See also, Frije et al., J. Biol. Chem., 26(24), 16766-73 (1994).
The expressed proenzyme was first purified over a heparin agarose column, and then over a chelating zinc chloride column. The proenzyme was then activated by APMA for use in the assay. Further details on baculovirus expression systems may be found in, for example, Luckow et al., J. Virol., 67, 4566-79 (1993). See also, O'Reilly et al, Baculovirus Expression Vectors: A Laboratory Manual (W. H. Freeman and Co., New York, N.Y., 1992). See also, King et al., The Baculovirus Expression System: A Laboratory Guide (Chapman & Hall, London, England, 1992).
(§3) All MMPs were activated using 4-aminophenylmercuric acetate (“APMA”, Sigma Chemical, St. Louis, Mo.) or trypsin. MMP-9 also was activated using human recombinant MMP-3 (purified in Assignee's laboratory following standard cloning and purification techniques).
(§4) Two fluorogenic, methoxycoumarin-containing polypeptide substrates were used in the MMP inhibition assays:
(§5) MCA-ProLeuGlyLeuDpaAlaArgNH2 (I)
(§6) Here, “Dpa” is 3-(2,4-dinitrophenyl)-L-2,3-diaminopropionyl group, and “MCA” is 7-methoxycoumarin-4-yl acetyl. Substrate (I) was purchased from Baychem (Redwood City, Calif.), and substrate II was prepared Assignee's laboratory. Substrate I was used in the IC50 determination assays, while substrate II was used in the Ki determination assays. In the absence of MMP inhibitory activity, either substrate is cleaved at the Gly-Leu peptide bond. This cleavage separates the highly fluorogenic peptide from the 2,4-dinitrophenyl quencher, thus resulting in increase of fluorescent intensity.
(§7) The stock solutions of the assayed hydroxamates (or salts thereof) were prepared in 1% dimethyl sulfoxide (DMSO). These stock solutions were diluted in Buffer A (100 mM Tris-HCl, 100 mM NaCl, 10 mM CaCl2, 0.05% polyoxyethylene 23 lauryl ether, pH 7.5) to obtain solutions with different hydroxamate concentrations, i.e., assay solutions with different concentrations of the assayed MMP inhibitory compound. The experiment controls contained the same amount of Buffer A/DMSO as the assayed sample, but contained no hydroxamate (or salt thereof).
(§8) The assays from which the IC50 determinations were made were performed as follows. The MMPs were activated with either trypsin or APMA (4-aminophenylmercuric acetate, Sigma Chemical, St. Louis, Mo.). The assayed hydroxamate samples were, incubated in Microfluorrm White Plates (Dynatech, Chantilly, VA) and analyzed on a Perkin Elmer L550 plate reader (Norwalk, Conn.). The excitation wavelength was 328 nm, and the emission wavelength—415 nm. All samples (assayed hydroxamates and controls) were incubated in separate plates at room temperature in the presence of 4 μM of MMP substrate (I). As stated in the previous paragraph, samples containing varying concentrations of the same assayed hydroxamate were prepared. Inhibition was measured as a reduction in fluorescent intensity as a function of MMP inhibitor concentration.

Human recombinant MMP-2 = target: T2, Human recombinant MMP-2 (Homo sapiens, UniProt P08253); assay: as above; format: biochemical
T2 construct: made in house; host or cells: MMP-2-transfected p2AHT2 cells
T2 sequence (P08253 110-660): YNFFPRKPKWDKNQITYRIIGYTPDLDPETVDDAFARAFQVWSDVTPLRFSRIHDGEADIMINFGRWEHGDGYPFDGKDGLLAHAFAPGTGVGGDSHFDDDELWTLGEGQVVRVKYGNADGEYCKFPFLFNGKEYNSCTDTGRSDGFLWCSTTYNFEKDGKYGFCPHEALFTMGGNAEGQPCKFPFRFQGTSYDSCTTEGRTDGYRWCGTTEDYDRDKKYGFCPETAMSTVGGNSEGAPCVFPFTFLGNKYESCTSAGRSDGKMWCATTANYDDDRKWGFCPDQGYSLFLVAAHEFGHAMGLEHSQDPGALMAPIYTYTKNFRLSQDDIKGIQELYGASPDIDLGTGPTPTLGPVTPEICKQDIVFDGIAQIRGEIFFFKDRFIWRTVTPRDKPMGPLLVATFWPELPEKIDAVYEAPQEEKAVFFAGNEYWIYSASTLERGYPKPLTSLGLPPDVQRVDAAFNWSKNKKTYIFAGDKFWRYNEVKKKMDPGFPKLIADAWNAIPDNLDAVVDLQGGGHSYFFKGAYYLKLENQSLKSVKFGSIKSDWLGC
Procedure: as §1, §2
The MMP-2 proenzyme was purified by gelatin Sepharose chromatography from MMP-2-transfected p2AHT2 cells provided by Dr. Gregory Goldberg of Washington University (St. Louis, Mo.).
as §3, §4, §5, §6, §7, §8

[1] = value outside parentheses (Ki in parenthesis)
[2] = substrate (I) 4 μM, room temperature, values not in parenthesis

SMILES | IC50 (Human recombinant MMP-13; [1]) [nM] | IC50 (Human recombinant MMP-2; [1]) [nM] | IC50 (Human recombinant MMP-13; value outside parentheses) [nM] | IC50 (Human recombinant MMP-2; value outside parentheses) [nM] | also measured
COCCN1CCC(C(=O)NO)(S(=O)(=O)c2ccc(OCCCn3ncc(-c4ccc(OC)cc4)c3C(F)(F)F)cc2)CC1 [Example 202] | – | – | – | – | IC50 (Human recombinant MMP-13; value outside parenthesis): 41.9 nM; IC50 (Human recombinant MMP-2; value outside parenthesis): 1600 nM
O=C1CN(c2ccc(OC(F)(F)F)cc2)C(=O)N1CCCOc1ccc(S(=O)(=O)C2(C(=O)NO)CCN(C3CC3)CC2)cc1 [Example 133] | – | – | – | – | IC50 (Human recombinant MMP-13; value outside parenthesis): 4.3 nM; IC50 (Human recombinant MMP-2; value outside parenthesis): 84.4 nM
COc1ccc(C(=O)C(C#N)CCOc2ccc(S(=O)(=O)C3(C(=O)NO)CCOCC3)cc2)cc1 (centres unmarked) [Example 176] | – | – | – | – | IC50 (Human recombinant MMP-13; value outside parenthesis): 7.8 nM; IC50 (Human recombinant MMP-2; value outside parenthesis): 109 nM
COc1ccc2cc(C(=O)NCCCOc3ccc(S(=O)(=O)C4(C(=O)NO)CCOCC4)cc3)ccc2c1 [Example 380] | 0.2 | 450 | – | – | –
O=C(NCCCOc1ccc(S(=O)(=O)C2(C(=O)NO)CCOCC2)cc1)c1ccc2ccccc2c1 [Example 366] | 0.3 | 347 | – | – | –
O=C(O)CCCOc1ccc(S(=O)(=O)C2(C(=O)NO)CCOCC2)cc1 [Example 273] | – | – | – | – | IC50 (Human recombinant MMP-13; value outside parenthesis): 304 nM; IC50 (Human recombinant MMP-2; value outside parenthesis): 1010 nM
O=C(NCCCOc1ccc(S(=O)(=O)C2(C(=O)NO)CCOCC2)cc1)c1ccc([N+](=O)[O-])cc1 [Example 369] | 1.5 | 155 | – | – | –
COc1ccc(/C(C#N)=C/CCOc2ccc(S(=O)(=O)C3(C(=O)NO)CCOCC3)cc2)cc1 [Example 236] | – | – | – | – | IC50 (Human recombinant MMP-13; value outside parenthesis): 3.4 nM; IC50 (Human recombinant MMP-2; value outside parenthesis): 7.6 nM
COc1ccccc1C(=O)NCCCOc1ccc(S(=O)(=O)C2(C(=O)NO)CCOCC2)cc1 [Example 363] | 7 | 430 | – | – | –
O=C(NCCCOc1ccc(S(=O)(=O)C2(C(=O)NO)CCOCC2)cc1)c1ccc2ccccc2c1O [Example 388] | 2 | 185 | – | – | –
C[C@H](COc1ccc(S(=O)(=O)C2(C(=O)NO)CCOCC2)cc1)NC(=O)c1ccc(N(C)C)cc1 [Example 394] | 1900 | 3200 | – | – | –
COc1cc2c(cc1OC)CN(CCCCOc1ccc(S(=O)(=O)C3(C(=O)NO)CCOCC3)cc1)CC2 [Example 338] | 138 | 20.6 | – | – | –
O=C(NO)C1(S(=O)(=O)c2ccc(OCCCN(c3nc4ccccc4s3)c3nc4ccccc4s3)cc2)CCOCC1 [Example 320] | 6110 | 5860 | – | – | –
NS(=O)(=O)CCCOc1ccc(S(=O)(=O)C2(C(=O)NO)CCOCC2)cc1 [Example 296] | 565 | 1340 | – | – | –
O=C(CCCOc1ccc(S(=O)(=O)C2(C(=O)NO)CCN(C3CC3)CC2)cc1)C1CCC(O)(c2ccc(Cl)cc2)CC1 (centres unmarked) [Example 255] | – | – | – | – | IC50 (Human recombinant MMP-13; value outside parenthesis): 1.9 nM; IC50 (Human recombinant MMP-2; value outside parenthesis): 51.3 nM
CC(C)c1cccc(CCCOc2ccc(S(=O)(=O)C3(C(=O)NO)CCOCC3)cc2)c1 [Example 94] | – | – | – | – | IC50 (Human recombinant MMP-13; value outside parenthesis): 3.7 nM; IC50 (Human recombinant MMP-2; value outside parenthesis): 17.8 nM
CC(=O)NC(C)(C)CCOc1ccc(S(=O)(=O)C2(C(=O)NO)CCOCC2)cc1 [Example 242] | – | – | – | – | IC50 (Human recombinant MMP-13; value outside parenthesis): 203 nM; IC50 (Human recombinant MMP-2; value outside parenthesis): 2720 nM
O=C(CCCOc1ccc(S(=O)(=O)C2(C(=O)NO)CCOCC2)cc1)Nc1cc2ccccc2cc1O [Example 312] | 0.2 | 9.1 | – | – | –
COCCN1CCC(C(=O)NO)(S(=O)(=O)c2ccc(OCCCN3C(=O)[C@@H](C)N(c4ccccc4)C3=O)cc2)CC1 [Example 108] | – | – | – | – | IC50 (Human recombinant MMP-13; value outside parenthesis): 20 nM; IC50 (Human recombinant MMP-2; value outside parenthesis): 434 nM
COc1ccc(C(=O)NC(C)(C)CCOc2ccc(S(=O)(=O)C3(C(=O)NO)CCNCC3)cc2)cc1 [Example 225] | – | – | – | – | IC50 (Human recombinant MMP-13; value outside parenthesis): 17.8 nM; IC50 (Human recombinant MMP-2; value outside parenthesis): 2330 nM
O=C(NO)C1(S(=O)(=O)c2ccc(OCCCc3ccc4ccccc4c3)cc2)CCOCC1 [Example 36] | – | – | – | – | IC50 (Human recombinant MMP-13; [2]): 2.4 nM; IC50 (Human recombinant MMP-2; [2]): 95 nM

The next lines start with results.

IC50 (Human recombinant MMP-13; [1]) [nM] | IC50 (Human recombinant MMP-2; [1]) [nM] | IC50 (Human recombinant MMP-13; value outside parentheses) [nM] | IC50 (Human recombinant MMP-2; value outside parentheses) [nM] | SMILES | also measured
4 | 115 | – | – | COc1ccc(S(=O)(=O)C[C@@H](C)COc2ccc(S(=O)(=O)C3(C(=O)NO)CCOCC3)cc2)cc1 [Example 431] | –
6.6 | 76 | – | – | CCCCOc1ccc(OCCCOc2ccc(S(=O)(=O)C3(C(=O)NO)CCOCC3)cc2)cc1 [Example 446] | –
– | – | 38.7 | 336 | Cn1c(C(=O)NCCOc2ccc(S(=O)(=O)C3(C(=O)NO)CCOCC3)cc2)cc2ccccc21 [Example 592] | –
– | – | 23.5 | 1450 | O=C(NCCCOc1ccc(S(=O)(=O)C2(C(=O)NO)CCOCC2)cc1)N1CCOCC1 [Example 497] | –
– | – | 0.6 | 10.1 | CC(=O)c1cccc(CCCOc2ccc(S(=O)(=O)C3(C(=O)NO)CCOCC3)cc2)c1 [Example 586] | –
– | – | 11.4 | 1130 | O=C(NCCCOc1ccc(S(=O)(=O)C2(C(=O)NO)CCN(C3CC3)CC2)cc1)C1C2CC3CC(C2)CC1C3 (centres unmarked) [Example 643] | –
114 | 251 | – | – | CC(=O)N1CC[C@@H](Oc2ccc(S(=O)(=O)C3(C(=O)NO)CCOCC3)cc2)C1 [Example 427] | –
– | – | 18.8 | 65.7 | Cn1cnc(CC(=O)NCCOc2ccc(S(=O)(=O)C3(C(=O)NO)CCOCC3)cc2)c1 [Example 566] | –
– | – | 27.5 | 822 | O=C(Cc1ccc(-c2ccc(Cl)cc2)s1)NCCOc1ccc(S(=O)(=O)C2(C(=O)NO)CCOCC2)cc1 [Example 618] | –
4 | 4 | – | – | COc1ccc(C(=O)NCCCCOc2ccc(S(=O)(=O)C3(C(=O)NO)CCOCC3)cc2)cc1 [Example 396] | –
1480 | 7200 | – | – | COc1ccc(C(=O)N2CC[C@@H](Oc3ccc(S(=O)(=O)C4(C(=O)NO)CCOCC4)cc3)C2)cc1 [Example 422] | –
8 | 650 | – | – | O=C(NCCCOc1ccc(S(=O)(=O)C2(C(=O)NO)CCOCC2)cc1)C1CCCCC1 [Example 399] | –
1.5 | 7 | – | – | COc1ccc(SC[C@@H](C)COc2ccc(S(=O)(=O)C3(C(=O)NO)CCOCC3)cc2)cc1 [Example 432] | –
– | – | 2.4 | 34 | COc1ccc(S(=O)(=O)NCCOc2ccc(S(=O)(=O)C3(C(=O)NO)CCOCC3)cc2)cc1 [Example 603] | –
– | – | 6.6 | 34.3 | CN(C)c1cccc(CCCOc2ccc(S(=O)(=O)C3(C(=O)NO)CCN(C4CC4)CC3)cc2)c1 [Example 613] | –
– | – | 5 | 135 | O=C(NO)C1(S(=O)(=O)c2ccc(OCCCc3cccc(N4CCNCC4)c3)cc2)CCN(C2CC2)CC1 [Example 641] | –
– | – | 4.1 | 16.2 | O=C(NCCOc1ccc(S(=O)(=O)C2(C(=O)NO)CCOCC2)cc1)c1ccc(Br)s1 [Example 620] | –
– | – | 4 | 85.4 | COc1cc(CCCOc2ccc(S(=O)(=O)C3(C(=O)NO)CCOCC3)cc2)cc(OC)c1 [Example 585] | –
– | – | 75.1 | 1710 | O=C(NO)C1(S(=O)(=O)c2ccc(OCCCc3cc(C(F)(F)F)cc(C(F)(F)F)c3)cc2)CCOCC1 [Example 573] | –
